Measurements taken from patent US10501421B1, “Substituted benzimidazoles as modulators of Ras signaling” (VANDERBILT UNIVERSITY, priority 2017, dated 2019).
Where a name gives a salt, the structure may show the parent alone.

Legend:
Son of Sevenless (SOS) = molecular target: T1, Son of Sevenless (SOS) (Homo sapiens, UniProt Q07889); assay: Binding to SOS, fluorescence polarization anisotropy (FPA) probe displacement; conditions: displacement of FITC-conjugated probe (Example 285), affinity calculated from IC50
T1 sequence (Q07889 564-1049 limits assumed): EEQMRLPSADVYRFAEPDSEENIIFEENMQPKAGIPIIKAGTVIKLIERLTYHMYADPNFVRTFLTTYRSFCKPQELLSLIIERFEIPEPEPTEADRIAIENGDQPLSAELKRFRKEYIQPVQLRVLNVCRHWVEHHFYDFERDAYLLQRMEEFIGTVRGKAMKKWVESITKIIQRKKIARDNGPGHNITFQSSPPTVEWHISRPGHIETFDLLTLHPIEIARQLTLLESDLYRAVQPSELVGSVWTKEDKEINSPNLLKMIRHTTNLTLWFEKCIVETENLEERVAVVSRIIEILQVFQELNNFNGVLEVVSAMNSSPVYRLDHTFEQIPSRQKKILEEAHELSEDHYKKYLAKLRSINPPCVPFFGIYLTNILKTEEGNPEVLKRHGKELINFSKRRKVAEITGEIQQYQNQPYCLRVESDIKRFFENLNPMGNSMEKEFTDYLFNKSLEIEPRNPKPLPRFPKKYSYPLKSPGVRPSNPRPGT
Summary of the method: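 A FITC-conjugated probe compound was incubated with SOS in buffer, and its displacement was tracked as a change in fluorescence anisotropy across a test-compound dose range. IC50 came from a four-parameter variable-slope fit, and binding affinity was calculated from it.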

[1] = molecular target: Ras GEF SOS (Son of Sevenless) (Homo sapiens, UniProt Q07889); assay: SOS-mediated nucleotide exchange on Ras (BODIPY-GDP fluorescence); format: biochemical; conditions: SOS-mediated exchange of BODIPY-GDP for GTP on Ras
Summary of the method: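 Ras loaded with BODIPY-GDP was mixed in buffer with test compound, then GTP and SOS. Fluorescence change from labeled GDP/GTP exchange was followed over time, and rates came from single-exponential fits. EC50 came from a four-parameter fit of mean rate against compound concentration.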

Chain of Ras GEF SOS (Son of Sevenless) (P01112 1-166 partner limits assumed, one chain of several): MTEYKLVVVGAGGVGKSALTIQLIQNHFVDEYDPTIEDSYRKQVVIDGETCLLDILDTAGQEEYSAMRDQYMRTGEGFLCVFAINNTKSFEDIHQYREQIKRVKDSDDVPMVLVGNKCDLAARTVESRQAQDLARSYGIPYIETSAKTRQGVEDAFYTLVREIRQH

Row | Compound | Ki (Son of Sevenless (SOS)) | EC50 [1]
1 | Cc1cc(N2CCC(CN)C2)c2nc(N3CCNCC3)n(Cc3cc(C)c(F)c(C)c3)c2c1 (centres unmarked) [Example 189, (1-(1-(4-fluoro-3,5-dimethylbenzyl)-6-methyl-2-(piperazin-1-yl)-1H-benzo[d]imidazol-4-yl)pyrrolidin-3-yl)methanamine trifluoroacetate] | 0.5 to 1 µM | 1 to 5 µM
2 | Cc1cc2nc(N3CCNCC3)n(Cc3ccc(F)c(Cl)c3)c2cc1C [Example 16, 1-(3-chloro-4-fluorobenzyl)-5,6-dimethyl-2-(piperazin-1-yl)-1H-benzo[d]imidazole trifluoroacetate] | 1 to 5 µM | 1 to 5 µM
3 | COc1ccc(-n2nccc2-c2cc(Cl)cc3c2nc(N2CCNCC2)n3Cc2ccc(F)c(Cl)c2)cc1 [Example 168, 6-chloro-1-(3-chloro-4-fluorobenzyl)-4-(1-(4-methoxyphenyl)-1H-pyrazol-5-yl)-2-(piperazin-1-yl)-1H-benzo[d]imidazole trifluoroacetate] | 0.5 to 1 µM | 1 to 5 µM
4 | Cc1cc(-c2c(C)nn(C)c2C)c2nc(N3CCNCC3)n(Cc3ccc(F)c(Cl)c3)c2c1 [Example 121, 1-(3-chloro-4-fluorobenzyl)-6-methyl-2-(piperazin-1-yl)-4-(1,3,5-trimethyl-1H-pyrazol-4-yl)-1H-benzo[d]imidazole trifluoroacetate] | < 0.5 µM | < 1 µM
5 | Cc1cc(Cn2c(N3CCNCC3)nc3c(N(C)C)cc(Cl)cc32)cc(C)c1F [Example 296, 6-chloro-1-(4-fluoro-3,5-dimethylbenzyl)-N,N-dimethyl-2-(piperazin-1-yl)-1H-benzo[d]imidazol-4-amine] | < 0.5 µM | 1 to 5 µM
6 | CNCCN(C)c1nc2cc(C)c(C)cc2n1Cc1cc(C)c(F)c(C)c1 [Example 45, N^1-(1-(4-fluoro-3,5-dimethylbenzyl)-5,6-dimethyl-1H-benzo[d]imidazol-2-yl)-N^1,N^2-dimethylethane-1,2-diamine trifluoroacetate] | > 5 µM | 5 to 30 µM
7 | Cc1cc2nc(N3CCN(C)CC3)n(Cc3ccc(F)cc3)c2cc1C [Example 24, 1-(4-fluorobenzyl)-5,6-dimethyl-2-(4-methylpiperazin-1-yl)-1H-benzo[d]imidazole trifluoroacetate] | > 5 µM | 1 to 5 µM
8 | Cc1cc(Cn2c(N3CCNCC3)nc3c(N4CCCCC4)cc(Cl)cc32)cc(C)c1F [Example 297, 6-chloro-1-(4-fluoro-3,5-dimethylbenzyl)-2-(piperazin-1-yl)-4-(piperidin-1-yl)-1H-benzo[d]imidazole] | < 0.5 µM | 1 to 5 µM
9 | Cc1cc2nc(N3CCNCC3)n(CC3CCCCC3)c2cc1C [Example 37, 1-(cyclohexylmethyl)-5,6-dimethyl-2-(piperazin-1-yl)-1H-benzo[d]imidazole trifluoroacetate] | > 5 µM | 5 to 30 µM
10 | Cc1cc2nc(N3CCNCC3)n(Cc3cc(F)cc(F)c3)c2cc1C [Example 18, 1-(3,5-difluorobenzyl)-5,6-dimethyl-2-(piperazin-1-yl)-1H-benzo[d]imidazole trifluoroacetate] | > 5 µM | 5 to 30 µM
11 | COc1ccccc1-c1nc(C)cc2c1nc(N1CCNCC1)n2Cc1ccc(F)c(C)c1 [Example 228, 1-(4-fluoro-3-methylbenzyl)-4-(2-methoxyphenyl)-6-methyl-2-(piperazin-1-yl)-1H-imidazo[4,5-c]pyridine] | > 5 µM | 5 to 30 µM
12 | Cc1cc2c(nc(N3CCNCC3)n2Cc2ccc(F)c(C)c2)c(CNCC(C)C)n1 [Example 231, N-((1-(4-fluoro-3-methylbenzyl)-6-methyl-2-(piperazin-1-yl)-1H-imidazo[4,5-c]pyridin-4-yl)methyl)-2-methylpropan-1-amine] | > 5 µM | 5 to 30 µM
13 | Cc1cc2c(nc(N3CCNCC3)n2Cc2ccc(F)c(C)c2)c(-c2ccc(CN)cc2)n1 [Example 229, (4-(1-(4-fluoro-3-methylbenzyl)-6-methyl-2-(piperazin-1-yl)-1H-imidazo[4,5-c]pyridin-4-yl)phenyl)methanamine] | > 5 µM | 1 to 5 µM
